Experimental data published in ChEMBL document CHEMBL1201862, “PubChem BioAssay data set” (2004).
Active and inactive are the calls of the source.

Columns and labels:
Hexokinase HKDC1 = biological target: T1, Hexokinase HKDC1 (Homo sapiens, UniProt Q2TB90); assay: HKDC1 hexokinase inhibitors, dose response, biochemical, W721R variant (AID 504729); type: functional
T1 sequence (Q2TB90 whole entry): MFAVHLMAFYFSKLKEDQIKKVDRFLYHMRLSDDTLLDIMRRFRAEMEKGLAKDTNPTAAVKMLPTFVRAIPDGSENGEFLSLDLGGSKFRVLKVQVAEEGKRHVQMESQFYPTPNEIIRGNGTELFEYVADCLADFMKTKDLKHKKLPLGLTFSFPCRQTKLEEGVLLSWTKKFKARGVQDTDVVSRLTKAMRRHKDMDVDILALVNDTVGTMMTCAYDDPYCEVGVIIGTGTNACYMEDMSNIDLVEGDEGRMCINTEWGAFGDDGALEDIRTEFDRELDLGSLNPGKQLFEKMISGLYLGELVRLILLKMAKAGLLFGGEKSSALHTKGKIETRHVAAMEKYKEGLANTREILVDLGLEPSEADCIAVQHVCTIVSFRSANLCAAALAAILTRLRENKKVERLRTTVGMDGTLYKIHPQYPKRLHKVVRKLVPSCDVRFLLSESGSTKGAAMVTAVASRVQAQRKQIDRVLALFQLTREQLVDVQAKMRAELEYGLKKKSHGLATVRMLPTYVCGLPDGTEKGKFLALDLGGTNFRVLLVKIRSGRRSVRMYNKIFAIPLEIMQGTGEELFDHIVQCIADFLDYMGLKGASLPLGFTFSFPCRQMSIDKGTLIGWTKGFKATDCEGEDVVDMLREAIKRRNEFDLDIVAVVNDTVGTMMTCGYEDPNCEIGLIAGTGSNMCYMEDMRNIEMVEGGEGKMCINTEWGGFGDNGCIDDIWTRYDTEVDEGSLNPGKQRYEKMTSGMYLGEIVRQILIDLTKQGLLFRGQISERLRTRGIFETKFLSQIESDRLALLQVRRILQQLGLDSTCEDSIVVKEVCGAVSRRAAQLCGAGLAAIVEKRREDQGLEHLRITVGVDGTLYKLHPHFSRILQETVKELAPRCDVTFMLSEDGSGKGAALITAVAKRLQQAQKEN

Cysteine protease ATG4B = biological target: T2, Cysteine protease ATG4B (Homo sapiens, UniProt Q9Y4P1); type: functional;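 also: Fluorescence-based dose-response confirmation assay measuring inhibition of ATG4B activity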
T2 sequence (Q9Y4P1 whole entry): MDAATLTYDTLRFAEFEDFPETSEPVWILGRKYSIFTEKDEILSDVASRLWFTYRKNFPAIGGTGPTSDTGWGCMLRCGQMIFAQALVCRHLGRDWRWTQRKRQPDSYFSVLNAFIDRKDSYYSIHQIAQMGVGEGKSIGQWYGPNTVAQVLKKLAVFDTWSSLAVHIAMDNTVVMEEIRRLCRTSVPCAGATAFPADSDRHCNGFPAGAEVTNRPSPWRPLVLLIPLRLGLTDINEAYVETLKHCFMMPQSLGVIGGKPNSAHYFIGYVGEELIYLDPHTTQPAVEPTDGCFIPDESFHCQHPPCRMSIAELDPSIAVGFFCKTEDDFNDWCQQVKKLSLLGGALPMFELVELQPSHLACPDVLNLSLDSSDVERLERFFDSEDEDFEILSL

Phospholipase A2 = Phospholipase A2 (Homo sapiens, UniProt P04054); type: functional;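 also: confirmatory dose-response counterscreen on phospholipase A2, testing hits that came from an ultra-high-throughput screen for ATG4B inhibitors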
Vero = Vero cell cytotoxicity, cytotoxicity control for flavivirus capping enzyme inhibitors (AID 588742); type: functional; settings: Chlorocebus sabaeus
Genome polyprotein = Genome polyprotein (dengue virus type 2, UniProt P29990); assay: Dengue-2 NS5 methyltransferase inhibitors, primary screen, biochemical, confirmation dose response (AID 588689); type: functional
[1] = biological target: Dual specificity tyrosine-phosphorylation-regulated kinase 1A (Rattus norvegicus, UniProt Q63470); type: biochemical, Homo sapiens
[2] = biological target: Ras and Rab interactor 1/Tyrosine-protein kinase ABL1 (Homo sapiens, UniProt P00519+Q13671); type: functional;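 also: biochemical TR-FRET dose-response test measuring inhibition of binding between Rin1 and Abl proteins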
[3] = biological target: Mitochondrial peptide methionine sulfoxide reductase (Bos taurus, UniProt P54149); assay: Absorbance-based biochemical high throughput dose response assay for activators of Methionine sulfoxide reductase A (MsrA).; type: functional
Paired box protein Pax-8 = Paired box protein Pax-8 (Homo sapiens, UniProt Q06710); assay: inhibitors of PAX8-driven TPO luciferase reporter, dose response, RMG-I cells, cherry-pick (AID 687027); type: functional, cell-based;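 also: luciferase reporter driven by Pax8 target thyroperoxidase promoter measured by SteadyGlo luminescence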
[4] = biological target: T3, Histone-lysine N-methyltransferase NSD2 (Homo sapiens, UniProt O96028); type: biochemical
T3 sequence (O96028 whole entry): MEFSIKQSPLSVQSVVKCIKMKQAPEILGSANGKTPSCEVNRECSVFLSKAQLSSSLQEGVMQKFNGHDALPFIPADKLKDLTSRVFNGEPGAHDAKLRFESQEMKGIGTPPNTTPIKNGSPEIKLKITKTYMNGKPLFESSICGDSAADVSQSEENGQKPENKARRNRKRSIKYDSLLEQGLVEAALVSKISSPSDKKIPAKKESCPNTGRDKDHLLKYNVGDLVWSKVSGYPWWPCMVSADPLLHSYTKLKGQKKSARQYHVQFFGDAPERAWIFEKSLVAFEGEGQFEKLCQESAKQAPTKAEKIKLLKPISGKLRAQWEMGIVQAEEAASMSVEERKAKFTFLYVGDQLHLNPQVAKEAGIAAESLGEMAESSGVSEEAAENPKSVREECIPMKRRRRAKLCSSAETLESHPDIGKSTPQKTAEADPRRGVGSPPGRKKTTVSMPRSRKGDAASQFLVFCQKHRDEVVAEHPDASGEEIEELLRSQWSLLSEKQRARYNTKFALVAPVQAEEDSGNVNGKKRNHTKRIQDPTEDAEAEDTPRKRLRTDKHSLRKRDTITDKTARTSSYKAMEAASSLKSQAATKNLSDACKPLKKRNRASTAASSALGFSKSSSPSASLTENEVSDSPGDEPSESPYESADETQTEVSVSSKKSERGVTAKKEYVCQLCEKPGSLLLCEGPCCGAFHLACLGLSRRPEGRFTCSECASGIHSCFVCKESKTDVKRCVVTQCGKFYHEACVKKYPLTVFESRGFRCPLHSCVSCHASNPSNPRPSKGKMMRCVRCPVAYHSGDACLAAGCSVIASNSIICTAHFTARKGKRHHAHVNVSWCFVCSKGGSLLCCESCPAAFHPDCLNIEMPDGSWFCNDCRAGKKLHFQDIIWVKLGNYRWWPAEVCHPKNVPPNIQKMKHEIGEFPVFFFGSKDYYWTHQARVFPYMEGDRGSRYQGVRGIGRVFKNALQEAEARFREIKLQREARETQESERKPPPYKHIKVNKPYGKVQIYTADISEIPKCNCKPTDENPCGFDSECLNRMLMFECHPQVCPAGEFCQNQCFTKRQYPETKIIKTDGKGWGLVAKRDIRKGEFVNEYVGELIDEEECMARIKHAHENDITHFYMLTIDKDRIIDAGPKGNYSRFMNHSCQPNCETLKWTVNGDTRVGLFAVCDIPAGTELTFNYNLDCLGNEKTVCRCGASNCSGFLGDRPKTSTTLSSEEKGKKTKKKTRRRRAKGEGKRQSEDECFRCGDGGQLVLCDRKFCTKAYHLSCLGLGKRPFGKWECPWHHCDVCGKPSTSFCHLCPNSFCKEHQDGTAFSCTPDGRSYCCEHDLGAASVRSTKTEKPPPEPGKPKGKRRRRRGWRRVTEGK

[5] = biological target: T4, Tyrosyl-DNA phosphodiesterase 2 (Homo sapiens, UniProt O95551); assay: human TDP2 enzyme inhibitors, dose response, biochemical, epi absorbance, IC50 (AID 743297)
T4 sequence (O95551 whole entry): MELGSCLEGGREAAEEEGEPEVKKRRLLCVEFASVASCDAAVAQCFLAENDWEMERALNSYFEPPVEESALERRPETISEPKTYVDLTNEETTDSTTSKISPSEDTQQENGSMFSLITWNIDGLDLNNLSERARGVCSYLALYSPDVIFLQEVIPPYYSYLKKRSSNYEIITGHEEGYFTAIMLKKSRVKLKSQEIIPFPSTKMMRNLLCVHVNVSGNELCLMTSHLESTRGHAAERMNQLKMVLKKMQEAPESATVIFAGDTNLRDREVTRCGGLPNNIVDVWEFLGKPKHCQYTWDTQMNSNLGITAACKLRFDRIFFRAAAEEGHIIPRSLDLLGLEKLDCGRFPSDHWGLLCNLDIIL

[6] = non-specific cell cytotoxicity, dose response, cytotoxicity control for PAX8 inhibitor project, plate reader, dry powder samples (AID 743021); type: functional, cell-based
[7] = THP-1 cell cytotoxicity, dose response, cytotoxicity control for Vif-APOBEC3G degradation inhibitor project, THP-1 cells (AID 1117359); type: functional; settings: Human immunodeficiency virus 1, THP-1

Mitochondrial peptide methionine sulfoxide reductase, sequence (P54149 whole entry): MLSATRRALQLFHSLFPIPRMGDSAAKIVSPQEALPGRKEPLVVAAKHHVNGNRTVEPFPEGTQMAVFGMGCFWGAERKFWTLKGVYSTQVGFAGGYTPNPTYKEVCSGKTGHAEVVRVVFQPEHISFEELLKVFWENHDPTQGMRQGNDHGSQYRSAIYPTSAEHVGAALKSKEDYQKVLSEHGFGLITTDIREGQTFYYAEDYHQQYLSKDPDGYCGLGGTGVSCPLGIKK
Phospholipase A2, sequence (P04054 whole entry): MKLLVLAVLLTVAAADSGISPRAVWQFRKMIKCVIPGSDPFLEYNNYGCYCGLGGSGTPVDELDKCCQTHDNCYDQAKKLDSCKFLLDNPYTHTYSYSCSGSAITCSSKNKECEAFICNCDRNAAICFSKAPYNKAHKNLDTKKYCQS
Genome polyprotein, sequence (P29990 2492-3391 limits assumed): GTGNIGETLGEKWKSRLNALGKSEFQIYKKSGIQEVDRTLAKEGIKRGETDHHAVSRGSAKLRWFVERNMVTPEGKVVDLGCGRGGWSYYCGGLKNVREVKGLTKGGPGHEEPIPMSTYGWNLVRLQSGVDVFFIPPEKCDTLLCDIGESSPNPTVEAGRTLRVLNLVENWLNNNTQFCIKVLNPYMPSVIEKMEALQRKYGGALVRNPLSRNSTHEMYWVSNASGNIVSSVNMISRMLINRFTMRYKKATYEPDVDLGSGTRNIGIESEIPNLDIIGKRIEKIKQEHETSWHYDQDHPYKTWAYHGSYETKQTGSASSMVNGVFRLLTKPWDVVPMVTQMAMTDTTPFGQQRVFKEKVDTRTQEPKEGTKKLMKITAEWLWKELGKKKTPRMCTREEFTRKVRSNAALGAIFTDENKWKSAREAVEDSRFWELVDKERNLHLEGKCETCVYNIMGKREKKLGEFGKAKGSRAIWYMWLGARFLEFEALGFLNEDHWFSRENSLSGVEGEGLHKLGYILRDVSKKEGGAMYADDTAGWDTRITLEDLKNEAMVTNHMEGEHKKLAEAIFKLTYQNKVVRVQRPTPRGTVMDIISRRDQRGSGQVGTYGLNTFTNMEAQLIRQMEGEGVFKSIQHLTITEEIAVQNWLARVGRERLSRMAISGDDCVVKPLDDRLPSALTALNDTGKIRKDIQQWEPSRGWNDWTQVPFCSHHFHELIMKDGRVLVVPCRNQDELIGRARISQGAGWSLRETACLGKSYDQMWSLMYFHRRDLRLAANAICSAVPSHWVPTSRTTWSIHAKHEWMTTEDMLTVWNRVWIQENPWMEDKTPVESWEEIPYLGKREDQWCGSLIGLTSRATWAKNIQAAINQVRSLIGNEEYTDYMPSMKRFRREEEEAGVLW
Paired box protein Pax-8, sequence (Q06710 whole entry): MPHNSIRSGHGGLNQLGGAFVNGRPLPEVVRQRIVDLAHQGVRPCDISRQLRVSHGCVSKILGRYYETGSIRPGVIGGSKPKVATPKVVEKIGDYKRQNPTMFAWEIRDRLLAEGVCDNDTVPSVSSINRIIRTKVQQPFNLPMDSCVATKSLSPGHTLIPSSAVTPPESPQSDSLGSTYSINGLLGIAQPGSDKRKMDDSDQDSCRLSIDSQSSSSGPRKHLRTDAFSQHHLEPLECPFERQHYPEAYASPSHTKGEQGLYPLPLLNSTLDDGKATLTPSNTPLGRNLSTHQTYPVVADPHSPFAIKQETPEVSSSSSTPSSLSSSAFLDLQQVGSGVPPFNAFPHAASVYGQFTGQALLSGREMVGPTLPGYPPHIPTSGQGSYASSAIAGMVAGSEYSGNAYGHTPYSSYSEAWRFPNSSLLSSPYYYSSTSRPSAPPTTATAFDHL
Ras and Rab interactor 1/Tyrosine-protein kinase ABL1, sequence (P00519 whole entry): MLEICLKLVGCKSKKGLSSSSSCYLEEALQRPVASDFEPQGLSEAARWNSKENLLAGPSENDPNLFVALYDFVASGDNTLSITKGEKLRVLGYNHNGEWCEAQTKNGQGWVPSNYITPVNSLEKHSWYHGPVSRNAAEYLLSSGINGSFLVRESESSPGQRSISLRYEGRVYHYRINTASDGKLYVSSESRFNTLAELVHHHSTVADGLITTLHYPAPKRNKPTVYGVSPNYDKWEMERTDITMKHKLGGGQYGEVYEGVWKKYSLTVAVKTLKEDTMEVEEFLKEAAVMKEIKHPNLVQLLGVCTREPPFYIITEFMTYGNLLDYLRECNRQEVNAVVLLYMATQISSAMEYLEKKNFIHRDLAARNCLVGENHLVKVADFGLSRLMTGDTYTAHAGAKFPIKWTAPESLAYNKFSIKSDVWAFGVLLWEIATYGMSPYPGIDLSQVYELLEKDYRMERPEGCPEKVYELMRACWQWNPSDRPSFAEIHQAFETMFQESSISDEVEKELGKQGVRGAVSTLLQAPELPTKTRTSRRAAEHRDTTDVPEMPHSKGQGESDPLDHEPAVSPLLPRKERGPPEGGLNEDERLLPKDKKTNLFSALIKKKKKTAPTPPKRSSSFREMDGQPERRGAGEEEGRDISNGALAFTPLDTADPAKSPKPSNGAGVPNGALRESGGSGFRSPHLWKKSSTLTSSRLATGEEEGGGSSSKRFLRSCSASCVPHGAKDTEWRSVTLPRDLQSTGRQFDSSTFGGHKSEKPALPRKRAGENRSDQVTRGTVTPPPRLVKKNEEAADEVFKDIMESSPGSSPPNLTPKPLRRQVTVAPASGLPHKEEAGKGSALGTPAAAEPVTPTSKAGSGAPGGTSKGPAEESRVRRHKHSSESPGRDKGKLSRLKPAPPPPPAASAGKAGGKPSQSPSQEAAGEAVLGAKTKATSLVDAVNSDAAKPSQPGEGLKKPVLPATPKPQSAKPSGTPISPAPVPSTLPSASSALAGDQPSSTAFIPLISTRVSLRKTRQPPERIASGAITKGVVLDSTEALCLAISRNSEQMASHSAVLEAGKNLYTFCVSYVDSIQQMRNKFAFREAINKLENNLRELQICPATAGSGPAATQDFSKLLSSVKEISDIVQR
Ras and Rab interactor 1/Tyrosine-protein kinase ABL1, sequence (Q13671 whole entry): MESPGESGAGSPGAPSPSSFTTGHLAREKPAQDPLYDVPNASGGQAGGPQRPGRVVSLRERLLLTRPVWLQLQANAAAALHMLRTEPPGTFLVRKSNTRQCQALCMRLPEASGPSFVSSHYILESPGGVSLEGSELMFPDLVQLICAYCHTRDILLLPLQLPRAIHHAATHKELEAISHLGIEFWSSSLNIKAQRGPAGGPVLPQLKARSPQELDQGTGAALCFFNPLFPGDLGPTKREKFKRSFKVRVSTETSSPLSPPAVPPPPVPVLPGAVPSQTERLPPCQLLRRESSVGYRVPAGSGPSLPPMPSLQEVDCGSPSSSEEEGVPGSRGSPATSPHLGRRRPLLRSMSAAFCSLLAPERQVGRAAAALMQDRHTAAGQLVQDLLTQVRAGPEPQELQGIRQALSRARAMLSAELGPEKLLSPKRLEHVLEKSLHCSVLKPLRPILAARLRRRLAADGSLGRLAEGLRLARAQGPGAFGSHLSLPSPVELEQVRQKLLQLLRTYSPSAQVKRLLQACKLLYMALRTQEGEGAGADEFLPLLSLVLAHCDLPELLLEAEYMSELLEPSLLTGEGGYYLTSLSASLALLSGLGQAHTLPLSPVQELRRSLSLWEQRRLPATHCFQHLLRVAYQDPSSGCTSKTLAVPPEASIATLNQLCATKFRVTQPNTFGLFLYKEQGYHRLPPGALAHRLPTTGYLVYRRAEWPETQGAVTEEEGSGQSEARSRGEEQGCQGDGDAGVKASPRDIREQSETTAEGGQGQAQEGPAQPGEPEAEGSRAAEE

COC1=CC(=O)c2c(ccc3ncnc(N)c23)C1=O
IC50 (Hexokinase HKDC1): 1.56 µM (active)
IC50 (Cysteine protease ATG4B): 6.81 µM (active)
IC50 (Phospholipase A2): > 80 µM (inactive)
CC50 (Vero): 4.63 µM (active)
IC50 (Genome polyprotein): 62.4 µM (active)
AC50 [1]: 2.53 µM (active)
IC50 [2]: > 73.4 µM (inactive)
EC50 [3]: 14.1 µM (inactive)
AC50 (Paired box protein Pax-8): 1.06 µM (active)
AC50 [4]: 1.28 µM (active)
IC50 [5]: 0.842 µM (active)
AC50 [6]: 9.49 µM (active)
CC50 [7]: 10.4 µM (active)
